This note sets out measurements from ChEMBL document CHEMBL4376820, “Homodimeric Tobramycin Adjuvant Repurposes Novobiocin as an Effective Antibacterial Agent against Gram-Negative Bacteria” (J Med Chem, 2019).

The test system of one assay is Pseudomonas aeruginosa. The assay is described as follows: Potentiation of novobiocin-induced antibacterial activity against wild type Pseudomonas aeruginosa PAO1 incubated for 18 hrs by CLSI protocol based assay. It counts as functional, organism-based.
The test system of assay [1] is Acinetobacter baumannii. The assay is described as follows: Antibacterial activity against novobiocin-resistant Acinetobacter baumannii ATCC 17978 mutant generated from seven serial passages by checkerboard assay. Type of assay: functional.
Assay [2] concerns Acinetobacter baumannii. The assay is described as follows: Antibacterial activity against colistin-resistant Acinetobacter baumannii ATCC 17978 mutant generated from seven serial passages by checkerboard assay. Type of assay: functional.
For assay [3], the system named is Acinetobacter baumannii. The assay is described as follows: Antibacterial activity against novobiocin and test compound-resistant Acinetobacter baumannii ATCC 17978 mutant generated from seven serial passages in presence of novobiocin by checkerboard assay. Type of assay: functional.
Assay [4] concerns Acinetobacter baumannii. Kind of assay: Antibacterial activity against wild type Acinetobacter baumannii ATCC 17978 by checkerboard assay. It counts as functional.

The source made the active and inactive calls. The rule behind the calls is not given here.

Take `CC(C)(C)OC(=O)NC[C@H]1O[C@H](O[C@H]2[C@H](OCCCCc3cn(CCCCO[C@@H]4[C@@H](O[C@H]5O[C@H](CO)[C@@H](O)[C@H](NC(=O)OC(C)(C)C)[C@H]5O)[C@H](NC(=O)OC(C)(C)C)C[C@H](NC(=O)OC(C)(C)C)[C@H]4O[C@H]4O[C@H](CNC(=O)OC(C)(C)C)[C@@H](O)C[C@H]4NC(=O)OC(C)(C)C)nn3)[C@@H](O[C@H]3O[C@H](CO)[C@@H](O)[C@H](NC(=O)OC(C)(C)C)[C@H]3O)[C@H](NC(=O)OC(C)(C)C)C[C@@H]2NC(=O)OC(C)(C)C)[C@H](NC(=O)OC(C)(C)C)C[C@@H]1O`: the result with Pseudomonas aeruginosa was inactive.

Regarding `C#CCCCCO[C@@H]1[C@@H](O[C@H]2O[C@H](CO)[C@@H](O)[C@H](N)[C@H]2O)[C@H](N)C[C@H](N)[C@H]1O[C@H]1O[C@H](CN)[C@@H](O)C[C@H]1N`, the result in the assay with Pseudomonas aeruginosa was inactive.

Broadly, the MIC is the least concentration at which growth counts as inhibited. In the case of `CN(C)c1ccc(O)c2c1C[C@H]1C[C@H]3[C@H](N(C)C)C(O)=C(C(N)=O)C(=O)[C@@]3(O)C(O)=C1C2=O` [MINOCYCLINE], the MIC is 0.5 µg/mL in the assay on Acinetobacter baumannii [1], less than 0.031 µg/mL in the assay with Acinetobacter baumannii [2], 0.125 µg/mL with Acinetobacter baumannii [3] and 0.125 µg/mL in the assay on Acinetobacter baumannii [4].

For `CC(C)(O/N=C(\C(=O)N[C@@H]1C(=O)N2C(C(=O)[O-])=C(C[n+]3ccccc3)CS[C@H]12)c1csc(N)n1)C(=O)O` [CEFTAZIDIME], the MIC with Acinetobacter baumannii [1] was found to be 32 µg/mL; with Acinetobacter baumannii [2], 1 µg/mL; in the assay on Acinetobacter baumannii [3], 16 µg/mL; in the assay with Acinetobacter baumannii [4], 16 µg/mL.

Turning to `CO[C@H]1/C=C/O[C@@]2(C)Oc3c(C)c(O)c4c(O)c(c(/C=N/N5CCN(C)CC5)c(O)c4c3C2=O)NC(=O)/C(C)=C\C=C\[C@H](C)[C@H](O)[C@@H](C)[C@@H](O)[C@@H](C)[C@H](OC(C)=O)[C@@H]1C` [RIFAMPIN], the MIC is 2 µg/mL with Acinetobacter baumannii [1], less than 0.031 µg/mL in the assay with Acinetobacter baumannii [2], 2 µg/mL in the assay on Acinetobacter baumannii [3] and 2 µg/mL with Acinetobacter baumannii [4].

For `O=C(N[C@H](CO)[C@H](O)c1ccc([N+](=O)[O-])cc1)C(Cl)Cl` [CHLORAMPHENICOL], the MIC in the assay with Acinetobacter baumannii [1] stood at 32 µg/mL; in the assay with Acinetobacter baumannii [2] it was 8 µg/mL; in the assay with Acinetobacter baumannii [3], 64 µg/mL; in the assay with Acinetobacter baumannii [4], 64 µg/mL.

On to `[N-]=[N+]=NCCCCO[C@@H]1[C@@H](O[C@H]2O[C@H](CO)[C@@H](O)[C@H](N)[C@H]2O)[C@H](N)C[C@H](N)[C@H]1O[C@H]1O[C@H](CN)[C@@H](O)C[C@H]1N`, for which, in the assay on Pseudomonas aeruginosa, the outcome was inactive.

For `O=C(O)c1cn(C2CC2)c2cc(N3CCNCC3)c(F)cc2c1=O` [CIPROFLOXACIN], the MIC with Acinetobacter baumannii [4] turned out to be 1 µg/mL.
